# Bridge positions count the residues as written; N and C are the ends. Peptide text beside a SMILES is read from it. * marks the point of attachment. FITC = O=C1OC2(c3ccc(O)cc3Oc3cc(O)ccc32)c2ccc(NC(=S)*)cc21; Ahx = NCCCCCC(=O)O
# Test system: TE-13 cells co-cultured with T cells
# Assay: Lactate dehydrogenase (LDH) release assay, T cell cytotoxicity
# Assay type: cell-based, human
# Settings: TE-13 and T cells at 16:1; FITC-YT-16 1, 2, 4, 8 and 16 µM; overnight, 37 °C; A490; triplicate wells
# Description: The experiment in Figure 10 mainly evaluated the activation status of CD4^+ T cells by detection of IL-2 and INF-γ levels in the culture supernatant. The test in Figure 11 mainly evaluated the enhanced cytotoxicity by CD8^+ T cells by detection of lactate dehydrogenase (LDH) release in the culture supernatant. Activated CD8 T cells can recognize tumor cells and kill tumor cells by means of degranulation and Fas/FasL recognition. After the tumor cells were damaged, a cytoplasmic enzyme with name lactate dehydrogenase (LDH) is released from damaged cells into the supernatant and by measuring the levels of LDH, we can evaluate the cytotoxic effect of CD8 T cells. […]
# Effect of FITC-YT-16 peptide on T cell cytotoxicity was detected by measuring the release of a cytoplasmic enzyme, lactate dehydrogenase (LDH), from damaged cells into the supernatant by using a colorimetric assay according to cytotoxicity detection kit (Cayman Chemical, Ann Arbor, MI, USA). […] The supernatant was transferred to a new 96-well assay plate and the LDH reaction solution was added to each well and incubated for 30 min at 37 °C before the absorbance was read at 490 nm. […] Triplicate wells were averaged and the percentage of specific lysis was calculated by the following equation: % Cytotoxicity=[Experimental value A490−Spontaneous release A490/Maximum release A490−Spontaneous release A490]∗100
smiles,measurement,value
CC[C@H](C)[C@@H]1NC(=O)[C@H](CCSC)NC(=O)[C@@H](NC(=O)[C@H](CCCNC(=N)N)NC(=O)[C@H](Cc2ccc(O)cc2)NC(=O)CCCCCNC(=S)Nc2ccc3c(c2)C(=O)OC32c3ccc(O)cc3Oc3cc(O)ccc32)CSSC[C@@H](C(=O)N[C@H](C(=O)N[C@H](C(=O)O)[C@@H](C)O)[C@@H](C)CC)NC(=O)[C@H](CCCCN)NC(=O)[C@H](Cc2ccc(O)cc2)NC(=O)[C@H](CC(=O)O)NC(=O)[C@H](C)NC(=O)CNC(=O)CNC(=O)[C@H](Cc2ccc(O)cc2)NC(=O)[C@H](CO)NC1=O [FITC-YT-16] ({FITC-Ahx}-YRCMISYGGADYKCIT-OH; disulfide 3-14),"T cell cytotoxicity, concentration dependence",dose-dependently increased

# Reference: publication PMC6386944, “Design and Synthesis of A PD-1 Binding Peptide and Evaluation of Its Anti-Tumor Activity” (International Journal of Molecular Sciences, 2019)
